{
  "source": "patent US20250177566A1",
  "about": "“USE OF CHEMICAL EPIGENETIC MODIFIERS TO MODULATE GENE EXPRESSION” (The University of North Carolina at Chapel Hill, priority 2022, published 2025)",
  "format_in_all_cases": "cell-based, human",
  "key": {"TRE3G-GFP reporter gene": {"system": "TRE3G-GFP reporter gene", "assay": "TRE3G-GFP reporter gene activation in HCT116, dCas9 + MS2-FKBP*x2 (F36V) system, flow cytometry", "parameters": "fold change, GFP: reference not given here", "conditions": "FIG. 5A, 10 nM, 48 hrs"}, "CXCR4 [1]": {"system": "CXCR4", "assay": "CXCR4 mRNA activation in HCT116 stably expressing dCas9 and MS2-FKBP*x2, qRT-PCR", "conditions": "for fold change, CXCR4 mRNA (CEM Treated vs Non-Treated): 48 hrs; for fold change, CXCR4 mRNA (CXCR4 gRNA vs NT gRNA): FIG. 3B; for fold change, CXCR4 mRNA (CXCR4 gRNA vs NT gRNA) / fold change, CXCR4 mRNA (washout vs AP1867 competition) / fold change, CXCR4 mRNA (Compare to 0 h): CEM203 50 nM; for fold change, CXCR4 mRNA (washout vs AP1867 competition): FIG. 3C; for fold change, CXCR4 mRNA (Compare to 0 h): FIG. 7A", "method": "To further explore the activation potential of the SLF*-CEMa, their ability to target endogenous genes was evaluated (FIGS. 2A and 2B). Lentivirus was used to establish a stable HCT116 cell line expressing dCas9 and MS2-FKBP*x2 constructs, selecting for cells with antibiotic resistance. […] All CEMs were screened for their ability to activate the CXCR4 gene at 5 nM (FIG. 2C). RNA extraction and quantitative RT-PCR (qRT-PCR) were performed after 48 hours of CEM treatment.\nTo determine the optimal treatment concentration of the SLF*-CEMa molecules in this context, HCT116 cells were treated with 1 nM, 5 nM, 25 nM, and 50 nM of CEM203, CEM207, or CEM87. […] After 48 hours, RNA extraction followed by qRT-PCR was performed to evaluate the change in mRNA expression of CXCR4 (FIG. 2D). […] To directly compare this induced activation to other CRISPR-Cas9-based epigenetic activators, dCas9-VPR and dCas9-p300 constructs were virally infected into HCT116 cells and CXCR4 activation assessed in a similar fashion (FIGS. 2A and 2B).\nTo determine the time at which SLF*-CEMa most effectively induces gene activation, CXCR4 gene expression changes over time were investigated in dCas9 and MS2-FKBP*x2 stably infected HCT116 cells. Cells were treated with either vehicle, […] (FIG. 3A). RNA extraction and qRT-PCR were performed at 12, 24, 48, 72, and 96 hrs time points (FIG. 3B).\nTo investigate if endogenous gene activation triggered by the SLF*-CEMa compounds is also reversible, HCT116 cells were treated with CEM203 (50 nM) or CEM207 (25 nM) for 24 hours after transfecting CXCR4 gRNA, and then the CEMs were removed by media exchange at various time points. […] Likewise, it was investigated whether treatment with excess AP1867 could further reverse gene activation, potentially in a more robust fashion than with washout alone if there is any remaining intracellular SLF*-CEMa. To test this, after 24 hours of SLF*-CEMa treatment, a media exchange containing 20 μM AP1867 was performed (FIGS. 3C and 3D).\nRNA extraction and qRT-PCR. All RNA extraction experiments were conducted in 12-well plate format. Culturing medium was removed, and cells were washed with 1×PBS, following with 0.05% trypsin to disassociate. After being quenched by medium and centrifuged, cells were washed with 1×PBS, and the RNA extraction was performed by using RNeasy Plus Mini kit (Qiagen, 74134). RT-qPCR was conducted by using RNA-to CT 1-step kit (Thermo Fisher Scientific, 4389986). The primer sets used in quantifying each gene can be found in Table 4."}, "CXCR4 [2]": {"system": "CXCR4", "assay": "CXCR4 mRNA activation in HCT116 stably expressing dCas9 and MS2-FKBPx2 (WT-FKBP), qRT-PCR", "conditions": "FIG. 6, WT FKBP system, 48 hrs"}},
  "data": [
    {"smiles": "CC[C@H](C(=O)N1CCCC[C@H]1C(=O)O[C@H](CCc1ccc(OC)c(OC)c1)c1cccc(OCC(=O)NCCOCCOCCOCCOCCNC(=O)C[C@@H]2N=C(c3ccc(Cl)cc3)c3cc(OC)ccc3-n3c(C)nnc32)c1)c1cc(OC)c(OC)c(OC)c1", "note": "[CEM203, (1R)-1-(3-((20-((4S)-6-(4-Chlorophenyl)-8-methoxy-1-methyl-4H-benzo[f][1,2,4]triazolo[4,3-a][1,4]diazepin-4-yl)-2,19-dioxo-6,9,12,15-tetraoxa-3,18-diazaicosyl)oxy)phenyl)-3-(3,4-dimethoxyphenyl) propyl (2S)-1-((S)-2-(3,4,5-trimethoxyphenyl)butanoyl) piperidine-2-carboxylate]", "values": [
      {"measurement": "fold change, GFP", "setting": "TRE3G-GFP reporter gene; NT gRNA", "result": 0.7, "unit": "fold"},
      {"measurement": "fold change, GFP", "setting": "TRE3G-GFP reporter gene; TRE3G gRNA", "result": 9.4, "unit": "fold"},
      {"measurement": "fold change, CXCR4 mRNA (CEM Treated vs Non-Treated)", "setting": "CXCR4 [1]; FIG. 2D, CXCR4 gRNA, 1 nM", "result": 2.3, "unit": "fold"},
      {"measurement": "fold change, CXCR4 mRNA (CEM Treated vs Non-Treated)", "setting": "CXCR4 [1]; FIG. 2D, CXCR4 gRNA, 5 nM", "result": 13.0, "unit": "fold"},
      {"measurement": "fold change, CXCR4 mRNA (CEM Treated vs Non-Treated)", "setting": "CXCR4 [1]; FIG. 2D, CXCR4 gRNA, 25 nM", "result": 35.9, "unit": "fold"},
      {"measurement": "fold change, CXCR4 mRNA (CEM Treated vs Non-Treated)", "setting": "CXCR4 [1]; FIG. 2D, CXCR4 gRNA, 50 nM", "result": 54.0, "unit": "fold"},
      {"measurement": "fold change, CXCR4 mRNA (CEM Treated vs Non-Treated)", "setting": "CXCR4 [1]; FIG. 2D, NT gRNA, 1 nM", "result": 0.98, "unit": "fold"},
      {"measurement": "fold change, CXCR4 mRNA (CEM Treated vs Non-Treated)", "setting": "CXCR4 [1]; FIG. 2D, NT gRNA, 5 nM", "result": 1.30, "unit": "fold"},
      {"measurement": "fold change, CXCR4 mRNA (CEM Treated vs Non-Treated)", "setting": "CXCR4 [1]; FIG. 2D, NT gRNA, 25 nM", "result": 2.42, "unit": "fold"},
      {"measurement": "fold change, CXCR4 mRNA (CEM Treated vs Non-Treated)", "setting": "CXCR4 [1]; FIG. 2D, NT gRNA, 50 nM", "result": 2.57, "unit": "fold"},
      {"measurement": "CXCR4 activation compared to dCas9-p300", "setting": "CXCR4 [1]; FIG. 2D, concentrations above 5 nM", "result": "higher CXCR4 activation"},
      {"measurement": "fold change, CXCR4 mRNA (CXCR4 gRNA vs NT gRNA)", "setting": "CXCR4 [1]; 24 h", "result": 17.9, "unit": "fold"},
      {"measurement": "fold change, CXCR4 mRNA (CXCR4 gRNA vs NT gRNA)", "setting": "CXCR4 [1]; 48 h", "result": 19.8, "unit": "fold"},
      {"measurement": "fold change, CXCR4 mRNA (CXCR4 gRNA vs NT gRNA)", "setting": "CXCR4 [1]; 48 h AP1867 (washout with 20 μM AP1867 after 24 hrs)", "result": 3.6, "unit": "fold"},
      {"measurement": "fold change, CXCR4 mRNA (CXCR4 gRNA vs NT gRNA)", "setting": "CXCR4 [1]; 48 h wash (media washout after 24 hrs)", "result": 7.7, "unit": "fold"},
      {"measurement": "fold change, CXCR4 mRNA (CXCR4 gRNA vs NT gRNA)", "setting": "CXCR4 [1]; 72 h", "result": 13.1, "unit": "fold"},
      {"measurement": "fold change, CXCR4 mRNA (CXCR4 gRNA vs NT gRNA)", "setting": "CXCR4 [1]; 72 h AP1867 (washout with 20 μM AP1867 after 24 hrs)", "result": 1.9, "unit": "fold"},
      {"measurement": "fold change, CXCR4 mRNA (CXCR4 gRNA vs NT gRNA)", "setting": "CXCR4 [1]; 72 h wash (media washout after 24 hrs)", "result": 5.6, "unit": "fold"},
      {"measurement": "fold change, CXCR4 mRNA (CXCR4 gRNA vs NT gRNA)", "setting": "CXCR4 [1]; 96 h AP1867 (washout with 20 μM AP1867 after 24 hrs)", "result": 1.2, "unit": "fold"},
      {"measurement": "fold change, CXCR4 mRNA (CXCR4 gRNA vs NT gRNA)", "setting": "CXCR4 [1]; 96 h wash (media washout after 24 hrs)", "result": 3.3, "unit": "fold"},
      {"measurement": "fold change, CXCR4 mRNA (washout vs AP1867 competition)", "setting": "CXCR4 [1]; 48 h", "result": 1.5, "unit": "fold"},
      {"measurement": "fold change, CXCR4 mRNA (washout vs AP1867 competition)", "setting": "CXCR4 [1]; 72 h", "result": 4.2, "unit": "fold"},
      {"measurement": "fold change, CXCR4 mRNA (washout vs AP1867 competition)", "setting": "CXCR4 [1]; 96 h", "result": 1.7, "unit": "fold"},
      {"measurement": "fold change, CXCR4 mRNA (Compare to 0 h)", "setting": "CXCR4 [1]; NT gRNA, 12 h", "result": 4.9, "unit": "fold"},
      {"measurement": "fold change, CXCR4 mRNA (Compare to 0 h)", "setting": "CXCR4 [1]; NT gRNA, 24 h", "result": 2.2, "unit": "fold"},
      {"measurement": "fold change, CXCR4 mRNA (Compare to 0 h)", "setting": "CXCR4 [1]; NT gRNA, 48 h", "result": 1.1, "unit": "fold"},
      {"measurement": "fold change, CXCR4 mRNA (Compare to 0 h)", "setting": "CXCR4 [1]; NT gRNA, 48 h AP1867 (washout with 20 μM AP1867 after 24 hrs)", "result": 0.8, "unit": "fold"},
      {"measurement": "fold change, CXCR4 mRNA (Compare to 0 h)", "setting": "CXCR4 [1]; NT gRNA, 48 h wash (media washout after 24 hrs)", "result": 0.7, "unit": "fold"},
      {"measurement": "fold change, CXCR4 mRNA (Compare to 0 h)", "setting": "CXCR4 [1]; NT gRNA, 72 h", "result": 1.0, "unit": "fold"},
      {"measurement": "fold change, CXCR4 mRNA (Compare to 0 h)", "setting": "CXCR4 [1]; NT gRNA, 72 h AP1867 (washout with 20 μM AP1867 after 24 hrs)", "result": 0.6, "unit": "fold"},
      {"measurement": "fold change, CXCR4 mRNA (Compare to 0 h)", "setting": "CXCR4 [1]; NT gRNA, 72 h wash (media washout after 24 hrs)", "result": 0.8, "unit": "fold"},
      {"measurement": "fold change, CXCR4 mRNA (Compare to 0 h)", "setting": "CXCR4 [1]; NT gRNA, 96 h", "result": 1.3, "unit": "fold"},
      {"measurement": "fold change, CXCR4 mRNA (Compare to 0 h)", "setting": "CXCR4 [1]; NT gRNA, 96 h AP1867 (washout with 20 μM AP1867 after 24 hrs)", "result": 0.5, "unit": "fold"},
      {"measurement": "fold change, CXCR4 mRNA (Compare to 0 h)", "setting": "CXCR4 [1]; NT gRNA, 96 h wash (media washout after 24 hrs)", "result": 0.7, "unit": "fold"},
      {"measurement": "CXCR4 mRNA expression after CEM washout in comparison to cells continuously treated", "setting": "CXCR4 [1]; FIGS. 3C and 3D, CEM203 50 nM or CEM207 25 nM for 24 hours, then media exchange, all time points", "result": "significantly lowered CXCR4 mRNA expression"},
      {"measurement": "time point of highest (peak) CXCR4 mRNA activation", "setting": "CXCR4 [1]; time course 12, 24, 48, 72, 96 hrs, CXCR4 gRNA", "result": 24, "unit": "h"},
      {"measurement": "fold change, CXCR4 mRNA (CXCR4 gRNA vs NT gRNA)", "setting": "CXCR4 [2]; 25 nM", "result": 1.5, "unit": "fold"},
      {"measurement": "fold change, CXCR4 mRNA (CXCR4 gRNA vs NT gRNA)", "setting": "CXCR4 [2]; 200 nM", "result": 3.5, "unit": "fold"}
    ]}
  ]
}
